Measurements from patent publication US20050234076A1, “Triazolopyrimidines” (priority 2002, published 2005).

Columns and labels:
[1] = test system: Botrytis cinerea; test: Botrytis Test (bean)/protective; type: in vivo; conditions: 48 h, bean plants, protective spray, evaluation 2 days after inoculation, 100% = no infection, read-out: Efficacy in %
Procedure: Botrytis Test (bean)/protective
Solvents: 24.5 parts by weight of acetone • 24.5 parts by of dimethylacetamide
Emulsifier: 1.0 part by weight of alkylaryl polyglycol ether
To produce a suitable preparation of active compound, 1 part by weight of active compound is mixed with the stated amounts of solvent and emulsifier, and the concentrate is diluted with water to the desired concentration.
To test for protective activity, young plants are sprayed with the preparation of active compound at the stated application rate. After the spray coating has dried on, 2 small pieces of agar colonized by Botrytis cinerea are placed onto each leaf. The inoculated plants are placed in a dark chamber at about 20° C. and 100% relative atmospheric humidity.
2 days after the inoculation the size of the infected areas on the leaves is evaluated. 0% means an efficacy which corresponds to that of the control, whereas an efficacy of 100% means that no infection is observed.

[2] = test system: Venturia inaequalis; test: Venturia Test (apple)/protective; type: in vivo; conditions: 240 h, apple plants, protective spray, evaluation 10 days after inoculation, 100% = no infection, read-out: Efficacy in %
Procedure: Venturia Test (apple)/protective Solvents: 24.5 parts by weight of acetone • 24.5 parts by weight of dimethylacetamide Emulsifier: 1.0 parts by weight alkylaryl polyglycol ether To produce a suitable preparation of active compound, 1 part by weight of active compound is mixed with the stated amounts of solvent and emulsifier, and the concentrate is diluted with water to the desired concentration. To test for protective activity, young plants are sprayed with the preparation of active compound at the stated application rate. […] The plants are then placed in a greenhouse at about 21° C. and a relative atmospheric humidity of about 90%.

[3] = physchem

Row | Compound | pest or weed control at 500 g/ha [1] [%] | chromatographic logP [3] | other results
1 | Clc1ccccc1-c1c(Cl)nc2ncnn2c1N1OC2CCC1C2 (stereo not shown) [drawing 84] | 93 | – | –
2 | Clc1ccc(-c2c(Cl)nc3ncnn3c2N2CCCCN2)c(Cl)c1 [drawing 97] | 95 | – | –
3 | CC1C=CCN(c2c(-c3c(F)cc(F)cc3F)c(Cl)nc3ncnn23)O1 (stereo not shown) [drawing 50] | – | – | pest or weed control at 100 g/ha [2]: 100%
4 | Fc1cccc(F)c1-c1c(Cl)nc2ncnn2c1N1CCCCN1 [drawing 95] | 95 | – | –
5 | Fc1cccc(Cl)c1-c1c(Cl)nc2ncnn2c1N1CCCCN1 [Example 12] | – | 2.67 | –
6 | CC1CCON1c1c(-c2c(F)cccc2Cl)c(Cl)nc2ncnn12 (stereo not shown) [drawing 87] | 100 | – | –
7 | CC1CCCON1c1c(-c2ccccc2Cl)c(Cl)nc2ncnn12 (stereo not shown) [Example 41] | – | 3.17 | –
8 | Fc1cccc(Cl)c1-c1c(Cl)nc2ncnn2c1N1NC2CCC1C2 (stereo not shown) [Example 28] | – | 2.59 | –
9 | Fc1cc(C(F)(F)F)cc(F)c1-c1c(Cl)nc2ncnn2c1N1CCCCN1 [Example 68] | – | 3.26 | –
10 | Fc1ccc(-c2c(Cl)nc3ncnn3c2N2CCCCO2)c(F)c1 [drawing 48] | – | – | pest or weed control at 100 g/ha [2]: 96%
11 | CC1CCON1c1c(-c2c(F)cc(F)cc2F)c(Cl)nc2ncnn12 (stereo not shown) [drawing 83] | 100 | – | –
12 | CC1CCCON1c1c(-c2ccccc2Cl)c(Cl)nc2ncnn12 (stereo not shown) [drawing 61] | – | – | pest or weed control at 100 g/ha [2]: 99%
13 | Fc1cc(F)c(-c2c(Br)nc3ncnn3c2N2CCCCN2)c(F)c1 [Example 24] | – | 2.73 | –
14 | Fc1cccc(Cl)c1-c1c(Cl)nc2ncnn2c1N1CCCCN1 [drawing 49] | – | – | pest or weed control at 100 g/ha [2]: 100%
15 | CC1CCON1c1c(-c2c(F)cccc2Cl)c(Cl)nc2ncnn12 (stereo not shown) [Example 42] | – | 2.74 | –
16 | Fc1cc(F)c(-c2c(Cl)nc3ncnn3c2N2CCCCN2)c(F)c1 [drawing 77] | 100 | – | –
17 | Fc1cc(C(F)(F)F)cc(F)c1-c1c(Cl)nc2ncnn2c1N1CCCCN1 [drawing 70] | – | – | pest or weed control at 100 g/ha [2]: 100%
18 | Fc1ccc(-c2c(Cl)nc3ncnn3c2N2OC3CCC2C3)c(F)c1 (stereo not shown) [drawing 88] | 99 | – | –
19 | Fc1cc(F)c(-c2c(Cl)nc3ncnn3c2N2CC=CCO2)c(F)c1 | 100 | – | –
20 | Fc1cc(F)c(-c2c(Br)nc3ncnn3c2N2CCCCN2)c(F)c1 [drawing 99] | 100 | – | –
21 | Fc1ccc(-c2c(Cl)nc3ncnn3c2N2CCCCO2)c(Cl)c1 [drawing 74] | 100 | – | –

Row | Compound | pest or weed control at 500 g/ha [1] [%] | chromatographic logP [3] | other results
22 | CC1C=CCN(c2c(-c3c(F)cc(F)cc3F)c(Cl)nc3ncnn23)O1 (stereo not shown) [drawing 80] | 93 | – | –
23 | CC1CCCON1c1c(-c2c(F)cc(F)cc2F)c(Cl)nc2ncnn12 (stereo not shown) [Example 35] | – | 3.23 | –
24 | Fc1cccc(F)c1-c1c(Cl)nc2ncnn2c1N1CCCCO1 [drawing 85] | 100 | – | –
25 | Fc1cc(F)c(-c2c(Cl)nc3ncnn3c2N2OC3CCC2C3)c(C(F)(F)F)c1 (stereo not shown) [drawing 78] | 100 | – | –
26 | Clc1cccc(Cl)c1-c1c(Cl)nc2ncnn2c1N1CCCCN1 [Example 21] | – | 2.88 | –
27 | Fc1cccc(Cl)c1-c1c(Cl)nc2ncnn2c1N1CCCCN1 [drawing 76] | 100 | – | –
28 | Fc1cc(F)c(-c2c(Cl)nc3ncnn3c2N2CCC=N2)c(F)c1 [drawing 91] | 100 | – | –
29 | Fc1cccc(F)c1-c1c(Cl)nc2ncnn2c1N1CCCCO1 [Example 31] | – | 2.68 | –
30 | Fc1cccc(Cl)c1-c1c(Cl)nc2ncnn2c1N1OC2CCC1C2 (stereo not shown) [Example 34] | – | 2.74 | –
31 | Fc1cc(F)c(-c2c(Cl)nc3ncnn3c2N2OC3CCC2C3)c(C(F)(F)F)c1 (stereo not shown) [Example 46] | – | 3.1 | –
32 | Clc1cccc(Cl)c1-c1c(Cl)nc2ncnn2c1N1CCCCN1 [drawing 92] | 99 | – | –
33 | CC1C=CCN(c2c(-c3c(F)cc(F)cc3F)c(Cl)nc3ncnn23)O1 (stereo not shown) [Example 58] | – | 3.12 | –
34 | Fc1ccc(-c2c(Cl)nc3ncnn3c2N2CCCCO2)c(F)c1 [drawing 75] | 100 | – | –
35 | Fc1cc(F)c(-c2c(Cl)nc3ncnn3c2N2CCCCN2)c(C(F)(F)F)c1 [Example 67] | – | 3.06 | –
36 | Fc1cc(F)c(-c2c(Cl)nc3ncnn3c2N2NC3CCC2C3)c(F)c1 (stereo not shown) [drawing 93] | 96 | – | –
37 | Fc1cc(F)c(-c2c(Cl)nc3ncnn3c2N2CCCCN2)c(C(F)(F)F)c1 [drawing 96] | 100 | – | –
38 | Fc1cccc(Cl)c1-c1c(Cl)nc2ncnn2c1N1NC2CCC1C2 (stereo not shown) [drawing 94] | 100 | – | –
39 | Fc1cccc(F)c1-c1c(Cl)nc2ncnn2c1N1CCCCN1 [Example 63] | – | 2.47 | –
40 | CCOC(=O)N1OCCC1C (stereo not shown) [N-ethoxycarbonyl-3-methylisoxazolidine] | – | 1.22 | –
41 | CC1CCON1c1c(-c2c(F)cc(F)cc2F)c(Cl)nc2ncnn12 (stereo not shown) [Example 1, 5-chloro-6-(2,4,6-trifluorophenyl)-7-(3-methyl-2-isoxazolidinyl)[1,2,4]triazolo[1,5-a]pyrimidine] | – | 2.76 | –
42 | Fc1cc(F)c(-c2c(Cl)nc3ncnn3c2N2CCCCO2)c(F)c1 [Example 6] | – | 2.92 | –

Row | Compound | pest or weed control at 500 g/ha [1] [%] | chromatographic logP [3] | other results
43 | Fc1ccc(-c2c(Cl)nc3ncnn3c2N2OC3CCC2C3)c(F)c1 (stereo not shown) [Example 43] | – | 2.67 | –
44 | Clc1ccc(-c2c(Cl)nc3ncnn3c2N2CCCCN2)c(Cl)c1 [Example 69] | – | 3.22 | –
45 | Fc1cc(F)c(-c2c(Cl)nc3ncnn3c2N2CCCCN2)c(F)c1 [Example 10] | – | 2.68 | –
46 | CC1CCCON1c1c(-c2ccccc2Cl)c(Cl)nc2ncnn12 (stereo not shown) [drawing 89] | 99 | – | –
47 | Fc1cccc(Cl)c1-c1c(Cl)nc2ncnn2c1N1OC2CCC1C2 (stereo not shown) [drawing 86] | 100 | – | –
48 | Fc1cc(F)c(-c2c(Cl)nc3ncnn3c2N2OC3CCC2C3)c(F)c1 (stereo not shown) [drawing 81] | 98 | – | –
49 | Fc1cc(C(F)(F)F)cc(F)c1-c1c(Cl)nc2ncnn2c1N1CCCCN1 [drawing 98] | 95 | – | –
50 | Fc1cc(F)c(-c2c(Cl)nc3ncnn3c2N2CCCCO2)c(F)c1 [drawing 73] | 100 | – | –
51 | Fc1ccc(-c2c(Cl)nc3ncnn3c2N2OC3CCC2C3)c(Cl)c1 (stereo not shown) [Example 44] | – | 2.89 | –
52 | Fc1cc(F)c(-c2c(Cl)nc3ncnn3c2N2CCC=N2)c(F)c1 [Example 11] | – | 2.34 | –
53 | Clc1ccccc1-c1c(Cl)nc2ncnn2c1N1OC2CCC1C2 (stereo not shown) [Example 33] | – | 2.69 | –
54 | Fc1cc(F)c(-c2c(Cl)nc3ncnn3c2N2NC3CCC2C3)c(F)c1 (stereo not shown) [Example 27] | – | 2.65 | –
55 | Fc1ccc(-c2c(Cl)nc3ncnn3c2N2CCCCO2)c(F)c1 [Example 9] | – | 2.84 | –
56 | CC1CCCON1c1c(-c2c(F)cc(F)cc2F)c(Cl)nc2ncnn12 (stereo not shown) [drawing 82] | 100 | – | –
57 | Fc1ccc(-c2c(Cl)nc3ncnn3c2N2CCCCO2)c(Cl)c1 [Example 8] | – | 3.11 | –
58 | Fc1cc(F)c(-c2c(Cl)nc3ncnn3c2N2OC3CCC2C3)c(F)c1 (stereo not shown) [Example 18] | – | 2.75 | –
59 | Fc1cc(F)c(-c2c(Cl)nc3ncnn3c2N2Cc3ccccc3CO2)c(F)c1 [drawing 72] | 100 | – | –
60 | Fc1ccc(-c2c(Cl)nc3ncnn3c2N2OC3CCC2C3)c(Cl)c1 (stereo not shown) [drawing 90] | 100 | – | –
61 | Fc1cc(F)c(-c2c(Cl)nc3ncnn3c2N2Cc3ccccc3CO2)c(F)c1 [Example 5] | – | 3.53 | –
